pIC50: −log10 of the molar value. Where two headings read alike, the source gives them in different places.
Columns and labels:
serotonin transporter = molecular target: T1, serotonin transporter (Rattus norvegicus, UniProt P31652); test: Inhibitory action on serotonin transporter (fluorescent substrate uptake in rat platelets); format: cell-based
T1 construct: evaluated using rat platelets expressing serotonin transporters; from tissue
Experimental: That is, the test compound was added to rat platelets, the fluorescent substance of a Neurotransmitter Transporter Activity Assay Kit (Molecular Devices, R8174) was added beginning after 15 minutes, and changes in fluorescent intensity from uptake of the fluorescent substance were measured over time to evaluate the inhibitory effect of the test compound on serotonin transporter.
2 Centrifugation was carried out at 350 g at room temperature for 5 minutes, and the supernatant containing platelet-rich plasma was collected in 15 ml falcon tubes.
3 Centrifugation was carried out at 2100 g at room temperature for 10 minutes to obtain platelets as a pellet. Ca-free K5 buffer was added in the amount of 0.7 times the amount of platelet-rich plasma obtained in operation 2, and the pellet was triturated by pipetting.
5 The fluorescent substance of a Neurotransmitter Transporter Activity Assay Kit was added, and changes in fluorescent intensity over time from uptake of the fluorescent substance through serotonin transporters were measured with a FDSS 6000 (Hamamatsu Photonics).

male BALB/c mice = test: In vivo efficacy test by forced swimming; set-up: species or system mouse; settings: oral, 1 hour before test; Example 1 10, 30 or 100 mg/kg, paroxetine 30 or 100 mg/kg; last 4 minutes; FIG. 1
Experimental: After 1 hour, the mice were placed individually in glass cylinders (19 cm in height, 9 cm in diameter) holding 9 cm of water, and observed at 23° C. for 6 minutes, during which time their behavior was recorded with a video camera. The control group was given the same amount of vehicle (0.5% methyl cellulose solution, 10 mL/kg).
The immobility times during the last 4 minutes were calculated from the video recordings. The mice were considered to be immobile if the following three behavioral criteria were met: they stopped struggling, stopped climbing, and floated on the water basically immobile, with only the slight movement necessary to keep their heads above water.

CYP2C9 [1] = molecular target: T2, CYP2C9 (Homo sapiens, UniProt P11712); test: Time-dependent CYP inhibition (Method 1), human hepatic microsome; format: in vitro ADME; settings: 30 min pre-incubation at 37° C., tolbutamide, n = 2
T2 sequence (P11712 whole entry): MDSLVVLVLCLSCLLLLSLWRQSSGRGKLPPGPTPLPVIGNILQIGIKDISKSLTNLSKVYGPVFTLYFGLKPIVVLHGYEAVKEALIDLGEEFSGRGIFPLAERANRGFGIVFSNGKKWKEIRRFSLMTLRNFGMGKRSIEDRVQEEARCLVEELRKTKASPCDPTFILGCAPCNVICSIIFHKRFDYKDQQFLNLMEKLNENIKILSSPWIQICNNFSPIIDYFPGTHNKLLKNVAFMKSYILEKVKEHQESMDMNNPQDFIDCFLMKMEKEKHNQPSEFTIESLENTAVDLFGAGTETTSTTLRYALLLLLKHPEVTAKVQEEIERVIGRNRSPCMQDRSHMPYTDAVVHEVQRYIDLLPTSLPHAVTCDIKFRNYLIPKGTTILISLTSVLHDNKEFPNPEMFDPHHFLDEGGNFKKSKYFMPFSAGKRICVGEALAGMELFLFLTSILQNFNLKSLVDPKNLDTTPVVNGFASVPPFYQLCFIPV
Experimental: (§2) The test substance was added to an enzyme solution (containing human hepatic microsome (0.2 mg/mL), 100 mM Kpi and 0.1 mM EDTA), and pre-incubated for 30 minutes at 37° C. in the presence of or absence of the coenzyme. The final concentration of the test substance was set at 0.1, 0.2, 0.4, 0.5, 1, 2, 10 or 50 μM. A NADPH generating system (60 mM MgCl2 solution containing 3.6 mM β-NADP^+, 90 mM glucose-6 phosphate and 1 Unit/mL glucose-6-phosphate dehydrogenase, incubated for 5 minutes to generate NADPH) was used as the coenzyme. After pre-incubation, part of the reaction solution was collected, diluted 10 times by mixing with a model substrate solution and the NADPH generating system, and then incubated for 10 minutes at 37° C. An equal amount of a mixed solution of acetonitrile and methanol (1:1, containing 0.05 μM dextrophan or 0.05 μM propranolol as an internal standard) was added to terminate the reaction, and metabolites of the model substrate in the reaction solution were measured by LC-MS/MS. […] The ratio relative to the amount of model substrate metabolites in the control test was given as residual activity. The ratio of residual activity in the presence of NADPH relative to residual activity in the absence of NADPH was evaluated, and the ratio of 80% or less was defined “+”, while the ratio of above 80% was defined as “−”.

CYP2C19 [2] = molecular target: T3, CYP2C19 (Homo sapiens, UniProt P33261); test: as above; format: in vitro ADME; settings: 30 min pre-incubation at 37° C., S-mephenytoin, n = 2
T3 sequence (P33261 whole entry): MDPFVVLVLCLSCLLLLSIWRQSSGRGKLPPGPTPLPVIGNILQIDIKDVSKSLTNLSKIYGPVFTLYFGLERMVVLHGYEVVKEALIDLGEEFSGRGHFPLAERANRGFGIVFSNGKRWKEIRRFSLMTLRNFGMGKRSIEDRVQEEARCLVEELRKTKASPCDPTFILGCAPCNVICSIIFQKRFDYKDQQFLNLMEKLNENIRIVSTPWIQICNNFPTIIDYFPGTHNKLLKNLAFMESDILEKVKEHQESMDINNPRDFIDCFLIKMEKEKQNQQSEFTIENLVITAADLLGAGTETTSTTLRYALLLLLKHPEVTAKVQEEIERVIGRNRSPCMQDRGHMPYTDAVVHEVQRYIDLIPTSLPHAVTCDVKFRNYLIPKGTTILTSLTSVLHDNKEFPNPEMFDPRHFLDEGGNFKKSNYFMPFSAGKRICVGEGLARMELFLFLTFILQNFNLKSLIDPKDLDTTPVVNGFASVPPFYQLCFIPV
Experimental: as §2

CYP2D6 [3] = molecular target: T4, CYP2D6 (Homo sapiens, UniProt P10635); test: as above; format: in vitro ADME; settings: 30 min pre-incubation at 37° C., bufuralol, n = 2
T4 sequence (P10635 whole entry): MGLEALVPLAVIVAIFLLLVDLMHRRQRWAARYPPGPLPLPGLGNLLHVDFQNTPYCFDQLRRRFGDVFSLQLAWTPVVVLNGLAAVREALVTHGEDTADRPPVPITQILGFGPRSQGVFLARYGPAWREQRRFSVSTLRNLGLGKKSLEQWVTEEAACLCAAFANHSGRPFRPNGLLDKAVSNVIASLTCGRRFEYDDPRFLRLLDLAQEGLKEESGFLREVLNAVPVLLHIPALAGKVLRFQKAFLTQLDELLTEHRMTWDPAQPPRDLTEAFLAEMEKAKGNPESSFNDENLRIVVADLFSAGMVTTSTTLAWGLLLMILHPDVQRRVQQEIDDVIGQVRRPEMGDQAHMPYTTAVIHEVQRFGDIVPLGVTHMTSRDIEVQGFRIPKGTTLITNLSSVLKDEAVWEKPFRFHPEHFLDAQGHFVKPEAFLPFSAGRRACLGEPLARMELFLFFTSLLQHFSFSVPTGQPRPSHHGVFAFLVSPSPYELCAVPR
Experimental: as §2

CYP3A4 [4] = molecular target: T5, CYP3A4 (Homo sapiens, UniProt P08684); test: as above; format: in vitro ADME; settings: 30 min pre-incubation at 37° C., midazolam, n = 2
T5 sequence (P08684 whole entry): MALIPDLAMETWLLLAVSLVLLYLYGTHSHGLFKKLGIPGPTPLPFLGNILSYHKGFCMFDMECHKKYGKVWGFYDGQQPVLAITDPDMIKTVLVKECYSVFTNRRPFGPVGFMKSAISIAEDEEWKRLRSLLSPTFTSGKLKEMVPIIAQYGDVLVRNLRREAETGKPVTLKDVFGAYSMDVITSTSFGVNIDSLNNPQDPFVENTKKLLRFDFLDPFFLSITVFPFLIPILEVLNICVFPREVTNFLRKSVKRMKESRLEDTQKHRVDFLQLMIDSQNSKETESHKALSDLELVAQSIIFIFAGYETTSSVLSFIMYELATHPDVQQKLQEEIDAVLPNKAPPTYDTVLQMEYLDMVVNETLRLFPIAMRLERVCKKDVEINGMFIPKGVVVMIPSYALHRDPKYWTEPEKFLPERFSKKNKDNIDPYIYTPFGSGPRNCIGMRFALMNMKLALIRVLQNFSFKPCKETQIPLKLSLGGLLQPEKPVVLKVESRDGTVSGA
Experimental: as §2

CYP2C19 [5] = molecular target: T3, CYP2C19; test: Competitive CYP inhibition (Method 2), human hepatic microsome; format: in vitro ADME
Experimental: (§1) The inhibition rate was determined from the amounts of model substrate metabolites with and without addition of the test substance at each test substance concentration, and the IC50 value was calculated from the inhibition rate (calculation method in accordance with Xenobiotica, 1999, 29(1), 53-75).

CYP2C9 [6] = molecular target: T2, CYP2C9; test: as above; format: in vitro ADME
Experimental: as §1

CYP2D6 [7] = molecular target: T4, CYP2D6; test: as above; format: in vitro ADME
Experimental: as §1

CYP3A4 [8] = molecular target: T5, CYP3A4; test: as above; format: in vitro ADME
Experimental: as §1

CYP1A2 [9] = molecular target: T6, CYP1A2 (Homo sapiens, UniProt P05177); settings: 30 min pre-incubation at 37° C., phenacetin, n = 2
T6 sequence (P05177 1-516): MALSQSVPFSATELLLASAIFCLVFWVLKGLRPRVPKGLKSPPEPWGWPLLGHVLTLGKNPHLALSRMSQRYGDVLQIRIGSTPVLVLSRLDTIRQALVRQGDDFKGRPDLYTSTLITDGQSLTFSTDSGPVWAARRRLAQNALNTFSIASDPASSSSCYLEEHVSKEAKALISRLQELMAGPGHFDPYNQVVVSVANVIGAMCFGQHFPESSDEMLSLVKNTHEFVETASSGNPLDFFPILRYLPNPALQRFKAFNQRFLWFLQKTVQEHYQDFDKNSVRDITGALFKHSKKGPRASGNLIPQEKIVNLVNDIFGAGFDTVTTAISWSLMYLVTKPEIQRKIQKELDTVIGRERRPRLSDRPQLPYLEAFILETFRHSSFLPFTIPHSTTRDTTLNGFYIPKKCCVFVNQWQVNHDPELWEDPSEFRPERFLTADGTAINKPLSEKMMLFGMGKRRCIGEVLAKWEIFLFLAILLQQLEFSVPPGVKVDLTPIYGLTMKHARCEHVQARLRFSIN
Experimental: as §2

CYP1A2 [10] = molecular target: T6, CYP1A2; test: Competitive CYP inhibition (Method 2), human hepatic microsome; format: in vitro ADME; set-up: containing human hepatic microsome (0.2 mg/mL); from tissue; host or cells: human hepatic microsomal fraction; settings: tested at 1 or 10 μM, phenacetin 10 μM, n = 2; read-out: CYP1A2 IC50 score (competitive inhibition)
Experimental: as §1

T1 sequence (P31652 whole entry): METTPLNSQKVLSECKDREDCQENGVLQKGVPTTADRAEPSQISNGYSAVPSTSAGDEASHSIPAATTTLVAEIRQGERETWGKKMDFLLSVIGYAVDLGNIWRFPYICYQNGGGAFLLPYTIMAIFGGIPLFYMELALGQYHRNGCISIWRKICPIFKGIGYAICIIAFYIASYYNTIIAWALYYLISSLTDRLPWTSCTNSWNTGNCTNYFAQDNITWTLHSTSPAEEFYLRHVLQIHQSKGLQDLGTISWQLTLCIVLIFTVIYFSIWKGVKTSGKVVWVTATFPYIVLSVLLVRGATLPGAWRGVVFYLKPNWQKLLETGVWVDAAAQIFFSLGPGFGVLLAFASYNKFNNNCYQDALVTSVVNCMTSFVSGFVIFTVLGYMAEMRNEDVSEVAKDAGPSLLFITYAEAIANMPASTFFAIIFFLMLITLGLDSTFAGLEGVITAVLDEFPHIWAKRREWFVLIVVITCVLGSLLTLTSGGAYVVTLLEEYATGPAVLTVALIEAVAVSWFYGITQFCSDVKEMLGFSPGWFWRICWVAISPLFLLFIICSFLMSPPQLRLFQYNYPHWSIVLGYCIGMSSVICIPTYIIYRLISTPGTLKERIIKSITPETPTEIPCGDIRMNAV

With `Fc1ccc([C@@H]2CCNC[C@H]2COc2ccc3c(c2)COC3)cc1` [Example 1, (3S,4R)-3-[(1,3-dihydro-2-benzofuran-5-yloxy)methyl]-4-(4-fluorophenyl)piperidine] the pIC50 (serotonin transporter) was 8.62, the “immobility time in forced swimming test” value (male BALB/c mice) was “dose-dependently suppressed immobility time” and the “Ratio of residual CYP2C9 activity in presence vs absence of NADPH after pre-incubation” value (CYP2C9 [1]; 10 μM) was “− (the ratio of above 80% was defined as “−”)”. The “Ratio of residual CYP2C9 activity in presence vs absence of NADPH after pre-incubation” value (CYP2C9 [1]; 50 μM) was “− (the ratio of above 80% was defined as “−”)”, the “Ratio of residual CYP2C19 activity in presence vs absence of NADPH after pre-incubation” value (CYP2C19 [2]; 10 μM) was “− (the ratio of above 80% was defined as “−”)” and the “Ratio of residual CYP2C19 activity in presence vs absence of NADPH after pre-incubation” value (CYP2C19 [2]; 50 μM) was “− (the ratio of above 80% was defined as “−”)”. For the same compound, the “Ratio of residual CYP2D6 activity in presence vs absence of NADPH after pre-incubation” value (CYP2D6 [3]; 10 μM) was “− (the ratio of above 80% was defined as “−”)”, the “Ratio of residual CYP2D6 activity in presence vs absence of NADPH after pre-incubation” value (CYP2D6 [3]; 50 μM) was “− (the ratio of above 80% was defined as “−”)” and the “Ratio of residual CYP3A4 activity in presence vs absence of NADPH after pre-incubation” value (CYP3A4 [4]; 10 μM) was “− (the ratio of above 80% was defined as “−”)”. The “Ratio of residual CYP3A4 activity in presence vs absence of NADPH after pre-incubation” value (CYP3A4 [4]; 50 μM) was “− (the ratio of above 80% was defined as “−”)”, the pIC50 (CYP2C19 [5]) was < 5.00 and the pIC50 (CYP2C9 [6]) was < 5.00. The pIC50 (CYP2D6 [7]) was < 5.00, the pIC50 (CYP3A4 [8]) was < 5.00 and the “Ratio of residual CYP1A2 activity in presence vs absence of NADPH after pre-incubation” value (CYP1A2 [9]; 10 μM) was “− (the ratio of above 80% was defined as “−”)”. The “Ratio of residual CYP1A2 activity in presence vs absence of NADPH after pre-incubation” value (CYP1A2 [9]; 50 μM) was “− (the ratio of above 80% was defined as “−”)” and the pIC50 (CYP1A2 [10]) was < 5.00.

For `Fc1ccc([C@@H]2CCNC[C@H]2COc2ccc3c(c2)OCO3)cc1` [Paroxetine, (3S,4R)-3-[(2H-1,3-benzodioxol-5-yloxy)methyl]-4-(4-fluorophenyl)piperidine, reference compound], the “immobility time in forced swimming test” value (male BALB/c mice) was “dose-dependently suppressed immobility time”, the pIC50 (CYP2C9 [6]; tested at 1 or 10 μM, tolbutamide 100 μM, n = 2, read-out: CYP2C9 IC50 score (competitive inhibition)) was < 5.00 and the pIC50 (CYP1A2 [10]) was < 5.00.

Reference: US8933100B2 (priority 2012, dated 2015)
